From patent US12509467B2 (Hoffmann-La Roche Inc., priority 2020, dated 2025)
pIC50: −log10 of the molar value. Where two headings read alike, the source gives them in different places.

Biological target: T1, human cGAS (residues 161-522) (Homo sapiens, UniProt Q8N884)
T1 construct: Recombinantly expressed purified human cGAS (residues 161-522) was used at 25 nM; made in house
Test: cGAS Activity Assay—Malachite Green
Type: biochemical
Experimental: Compounds were tested for cGAS inhibition in a coupled enzymatic assay based on Phosphate detection by Malachite Green. Final assay conditions were 20 mM TRIS pH 7.5 (Applichem), 5 mM MgCl2 (Sigma) and 0.01% BSA (Sigma) supplemented with 80 μM ATP (Sigma), 80 μM GTP (Sigma) and 100 nM Interferon Stimulating DNA (ISD) (Microsynth).
1 μL of DMSO dilution series was transferred to 32.3 μL reaction buffer, mixed by pipetting up/down, spun for 1 minute at 3000 rpm and was visually inspected for precipitation. 5 μL of 3-fold enzyme stock solution were transferred to an empty 384-well Black/Clear Flat Bottom Polystyrene NBS (Corning) rows 3-24. Rows 1-2 were filled with assay buffer. Plates were spun 10 seconds at 1000 rpm (164×g). 5 μL of compound intermediate dilution was added and mixed by pipetting up/down to rows 3-24. Rows 1-2 were filled with 3.1% DMSO assay buffer. Plates were spun 10 seconds at 1000 rpm (164×g). 5 μL 3-fold Nucleotide/DNA mix was added to all wells to start the reaction. Plates were spun 10 seconds at 1000 rpm (164×g) and incubated for 4 hour at room temperature (RT) in the dark. 5 μL 4 U/mL PPase (Sigma) were added to all wells. Plates spun 10 seconds at 1000 rpm (164×g). 10 μL BioMol green Solution (Enzo Life Sciences) was added to all wells. Plates spun 10 seconds at 1000 rpm (164×g) and incubated 30 minutes at RT in the dark. Absorbance data was collected 620 nm on an EnVision Multilable Reader (Perkin Elmer) and the following measurement settings were used: excitation filter photometric was 620 nm; excitation from the top; measurement height was 1 mm; number of flashes was 30; number of flashes integrated was 1.
All plates are checked for abnormalities and outliers in the Blank Control (no protein, row 1) and the Neutral Control (no compound, row 2) are excluded using the 3*SD rule.
Table 5 provides IC50 values (μM) for cGAS inhibition obtained for particular examples of the present invention as measured by the above-described assay.

[1] = cGAS inhibition, 25 nM cGAS, 80 μM ATP, 80 μM GTP, 100 nM ISD, 4 hour at RT, Malachite Green phosphate detection, read-out: IC50 cGAS

T1 sequence (Q8N884 161-522): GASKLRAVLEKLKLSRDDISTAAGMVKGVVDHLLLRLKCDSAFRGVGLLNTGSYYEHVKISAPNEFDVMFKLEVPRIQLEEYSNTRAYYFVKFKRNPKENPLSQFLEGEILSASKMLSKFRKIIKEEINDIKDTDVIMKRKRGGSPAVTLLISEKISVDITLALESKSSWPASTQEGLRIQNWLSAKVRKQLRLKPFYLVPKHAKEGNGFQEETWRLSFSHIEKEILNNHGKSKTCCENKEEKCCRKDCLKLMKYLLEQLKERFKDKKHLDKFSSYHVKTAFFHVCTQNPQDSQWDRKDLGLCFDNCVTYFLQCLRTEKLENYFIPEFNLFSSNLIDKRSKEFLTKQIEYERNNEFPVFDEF

Structure (SMILES) | pIC50 [1] | pIC50
CCCc1cc(=O)n2nc(NCc3cc(-c4ccn(C)n4)ccc3OC)nc2[nH]1 [Example 28, 2-[[2-methoxy-5-(1-methyl-pyrazol-3-yl)phenyl]methyl-amino]-5-propyl-4H-[1,2,4]-triazolo[1,5-a]pyrimidin-7-one] | 5.72 | 
CCCc1cc(=O)n2nc(NCc3cc(-c4ccn(C)n4)ccc3C(F)(F)F)nc2[nH]1 [Example 81, 2-[[5-(1-Methylpyrazol-3-yl)-2-(trifluoromethyl)phenyl]methylamino]-5-propyl-4H-[1,2,4]-triazolo[1,5-a]pyrimidin-7-one] | 5.77 | 
CCCCc1cc(=O)n2nc(NCc3cnn(-c4cnccn4)c3)nc2[nH]1 [Example 45, 5-butyl-2-[(1-pyrazin-2-ylpyr-azol-4-yl)methylamino]-4H-[1,2,4]triazolo[1,5-a]pyrimidin-7-one] | 5.45 | 
CCCc1cc(=O)n2nc(OCc3cc(-c4cnn(C)c4)ccc3Cl)nc2[nH]1 [Example 91, 2-[[2-Chloro-5-(1-methylpyrazol-4-yl)phenyl]methoxyl]-5-propyl-4H-[1,2,4]triazolo[1,5-a]pyrimidin-7-one] |  | 5.54
CCCc1cc(=O)n2nc(NCc3cccc(-c4ccccc4)c3)nc2[nH]1 [Example 16, 2-[(3-phenylphenyl)methyl-amino]-5-propyl-4H-[1,2,4]-triazolo[1,5-a]pyrimidin-7-one] | 5.59 | 
O=c1cc(C2CC2)[nH]c2nc(NCc3ccc(Cl)cc3Cl)nn12 [Example 59, 5-cyclopropyl-2-[(2,4-dichloro-phenyl)methylamino]-4H-[1,2,4]triazolo[1,5-a]pyrimidin-7-one] | 5.42 | 
CCCc1cc(=O)n2nc(OCc3ccc(-c4ccccc4)cc3Cl)nc2[nH]1 [Example 92, 2-1(2-Chloro-4-phenyl-phenyl)methoxyl-5-propyl-4H-[1,2,4]triazolo[1,5-a]pyrimidin-7-one] | 5.66 | 
CC(Nc1nc2[nH]c(C(F)(F)F)cc(=O)n2n1)c1ccc(-c2ccccc2)cc1 (stereo not drawn) [Example 78, 2-[1-(4-phenylphenyl)ethyl-amino]-5-(trifluoromethyl)-4H-[1,2,4]triazolo[1,5-a]pyrimidin-7-one] | 5.61 | 
CC(C)c1cc(=O)n2nc(NCc3ccc(Cl)cc3Cl)nc2[nH]1 [Example 61, 2-[(2,4-dichlorophenyl)methyl-amino]-5-isopropyl-4H-[1,2,4]-triazolo[1,5-a]pyrimidin-7-one] |  | 5.56
CCCc1cc(=O)n2nc(NCc3cccc(-c4ccn(C)n4)c3)nc2[nH]1 [Example 13, 2-[[3-(1-methylpyrazol-3-yl)-phenyl]methylamino]-5-propyl-4H-[1,2,4]triazolo[1,5-a]-pyrimidin-7-one] |  | 5.71
Cn1ccc(-c2ccc(Cl)c(CNc3nc4[nH]c(CCc5ccccc5)cc(=O)n4n3)c2)n1 [Example 26, 2-[[2-chloro-5-(1-methylpyrazol-3-yl)phenyl]methylamino]-5-(2-phenylethyl)-4H-[1,2,4]-triazolo[1,5-a]pyrimidin-7-one] |  | 5.80
O=c1cc(CNc2ccccc2)[nH]c2nc(NCc3ccc(Cl)cc3Cl)nn12 [Example 79, 5-(Anilinomethyl)-2-[(2,4-dichlorophenyl)methylamino]-4H-[1,2,4]triazolo[1,5-a]pyrimidin-7-one] |  | 5.34
CCCc1cc(=O)n2nc(NCc3ccc(-c4ccn(C)n4)cc3)nc2[nH]1 [Example 14, 2-[[4-(1-methylpyrazol-3-yl)-phenyl]methylamino]-5-propyl-4H-[1,2,4]triazolo[1,5-a]-pyrimidin-7-one] | 5.31 | 
O=c1cc(Cc2ccccc2)[nH]c2nc(NCc3cc(-c4ccncc4)ccc3Cl)nn12 [Example 31, 5-benzyl-2-[[2-chloro-5-(4-pyridyl)phenyl]methylamino]-4H-[1,2,4]triazolo[1,5-a]-pyrimidin-7-one] | 7.11 | 

Second part, the compound after the results:

pIC50 [1] | pIC50 | Structure (SMILES)
 | 6.89 | CCCCc1cc(=O)n2nc(NCc3cc(N4CC5(COC5)C4)ncc3Cl)nc2[nH]1 [Example 97, 5-Butyl-2-[[5-chloro-2-(2-oxa-6-azaspiro[3.3]heptan-6-yl)-4-pyridyl]methylamino]-4H-[1,2,4]triazolo[1,5-a]pyrimidin-7-one]
5.45 |  | O=c1cc(CC2CC2)[nH]c2nc(NCc3ccc(Cl)cc3Cl)nn12 [Example 63, 5-(cyclopropylmethyl)-2-[(2,4-dichlorophenyl)methylamino]-4H-[1,2,4]triazolo[1,5-a]-pyrimidin-7-one]
6.22 |  | COCCCc1cc(=O)n2nc(NCc3cc(-c4ccn(C)n4)ccc3Cl)nc2[nH]1 [Example 48, 2-[[2-chloro-5-(1-methylpyrazol-3-yl)phenyl]methylamino]-5-(3-methoxypropyl)-4H-[1,2,4]-triazolo[1,5-a]pyrimidin-7-one]
 | 6.54 | CCCc1cc(=O)n2nc(NCc3cc(-c4ccncc4)ccc3Cl)nc2[nH]1 [Example 25, 2-[[2-chloro-5-(4-pyridyl)phen-yl]methylamino]-5-propyl-4H-[1,2,4]triazolo[1,5-a]pyrimidin-7-one]
6.22 |  | CCCc1cc(=O)n2nc(NCc3cc(-c4ccn(C)n4)ccc3F)nc2[nH]1 [Example 12, 2-[[2-fluoro-5-(1-methylpyrazol-3-yl)phenyl]methylamino]-5-propyl-4H-[1,2,4]triazolo[1,5-a]pyrimidin-7-one]
 | 6.18 | CCCc1cc(=O)n2nc(NCc3cc(-c4ccccn4)ccc3Cl)nc2[nH]1 [Example 29, 2-[[2-chloro-5-(2-pyridyl)phen-yl]methylamino]-5-propyl-4H-[1,2,4]triazolo[1,5-a]pyrimidin-7-one]
6.36 |  | CCCCc1cc(=O)n2nc(NCc3nc(N4CCOCC4)ncc3Cl)nc2[nH]1 [Example 98, 5-Butyl-2-[(5-chloro-2-morpholino-pyrimidin-4-yl)methylamino]-4H-[1,2,4]triazolo[1,5-a]pyrimidin-7-one]
6.49 |  | CCCc1cc(=O)n2nc(NCc3cc(-c4ncccn4)ccc3Cl)nc2[nH]1 [Example 43, 2-[(2-chloro-5-pyrimidin-2-yl-phenyl)methylamino]-5-propyl-4H-[1,2,4]triazolo[1,5-a]-pyrimidin-7-one]
5.67 |  | CCCc1cc(=O)n2nc(NCc3ccc(N4CCOCC4)cc3)nc2[nH]1 [Example 42, 2-[(4-morpholinophenyl)meth-amino]-5-propyl-4H-[1,2,4]-triazolo[1,5-a]pyrimidin-7-one]
 | 5.39 | CCCc1cc(=O)n2nc(NCc3ccc(Cl)cc3F)nc2[nH]1 [Example 62]
5.98 |  | CCCc1cc(=O)n2nc(NCc3cc(N4CCOCC4)ccc3Cl)nc2[nH]1 [Example 39, 2-[(2-chloro-5-morpholinophen-yl)methylamino]-5-propyl-4H-[1,2,4]triazolo[1,5-a]pyrimidin-7-one]
5.02 |  | CCCc1cc(=O)n2nc(NCc3ccc(OC)cc3Cl)nc2[nH]1 [Example 69, 2-[(2-chloro-4-methoxyphen-yl)methylamino]-5-propyl-4H-[1,2,4]triazolo[1,5-a]pyrimidin-7-one]
5.59 |  | CCCc1cc(=O)n2nc(NCc3cc(N4CCCCC4)ncc3Cl)nc2[nH]1 [Example 94, 2-[[5-chloro-2-(1-piperidyl)-4-pyridyl]methylamino]-5-propyl-4H-[1,2,4]triazolo[1,5-a]pyrimidin-7-one]
6.09 |  | CCc1cc(=O)n2nc(NCc3cc(-c4ccn(C)n4)ccc3Cl)nc2[nH]1 [Example 33, 2-[[2-chloro-5-(1-methylpyrazol-3-yl)phenyl]methylamino]-5-ethyl-4H-[1,2,4]triazolo[1,5-a]pyrimidin-7-one]
 | 6.06 | CCCc1cc(=S)n2nc(NCc3cc(-c4ccn(C)n4)ccc3Cl)nc2[nH]1 [Example 40, 2-[[2-chloro-5-(1-methylpyrazol-3-yl)phenyl]methylamino]-5-propyl-4H-[1,2,4]triazolo[1,5-a]-pyrimidine-7-thione]
5.18 |  | CCCc1cc(=O)n2nc(NCc3cc(N4CCN(C)CC4)ncc3Cl)nc2[nH]1 [Example 95, 2-[[5-chloro-2-(4-methyl-piperazin-1-yl)-4-pyridyl]-methylamino]-5-propyl-4H-[1,2,4]triazolo[1,5-a]pyrim-idin-7-one]
 | 5.40 | CCCc1cc(=O)n2nc(NCc3ccc(OCc4ccccc4)cc3Cl)nc2[nH]1 [Example 15]
6.40 |  | CCCc1cc(=O)n2nc(NCc3cc(-c4cnn(C)c4)ccc3Cl)nc2[nH]1 [Example 24, 2-[[2-chloro-5-(1-methylpyrazol-4-yl)phenyl]methylamino]-5-propyl-4H-[1,2,4]triazolo[1,5-a]pyrimidin-7-one]
6.09 |  | CCCc1cc(=O)n2nc(NCc3cc(NC(=O)c4ccon4)ncc3Cl)nc2[nH]1 [Example 90, N-[5-Chloro-4-[[(7-oxo-5-propyl-4H-[1,2,4]triazolo[1,5-a]pyrimidin-2-yl)amino]methyl]-2-pyridyl]isoxazole-3-carboxamide]
